The target of the first experiment is T1, Corticotropin-releasing factor receptor 2 (Homo sapiens, UniProt Q13324).
T1 sequence (Q13324 whole entry): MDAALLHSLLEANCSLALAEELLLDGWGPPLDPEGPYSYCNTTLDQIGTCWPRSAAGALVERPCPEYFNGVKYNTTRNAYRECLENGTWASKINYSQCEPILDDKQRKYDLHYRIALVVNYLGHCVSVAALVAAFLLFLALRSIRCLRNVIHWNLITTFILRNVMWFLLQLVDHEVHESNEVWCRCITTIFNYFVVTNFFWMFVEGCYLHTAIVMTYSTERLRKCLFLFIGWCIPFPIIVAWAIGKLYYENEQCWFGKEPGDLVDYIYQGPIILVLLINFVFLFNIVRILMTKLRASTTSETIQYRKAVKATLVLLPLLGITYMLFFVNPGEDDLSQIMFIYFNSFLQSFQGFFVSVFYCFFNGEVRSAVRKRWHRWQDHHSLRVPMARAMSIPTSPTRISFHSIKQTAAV
The experiment is described as follows: Binding affinity towards human Corticotropin releasing factor receptor 2 by the displacement of [125I]CRF from CHO cells; IA means Inactive. The class given is cell-based.
Regarding `CCCN(c1nccc(-c2c(Cl)cc(OC)cc2OC)n1)C(C1CC1)C1CC1`, the Ki result is reported as “Not Active”. As for `CCCN(c1nccc(-c2c(OC)cc(OC)cc2OC)n1)C(C1CC1)C1CC1`, the Ki entry is reported as “Not Active”.

In a further experiment the target is T2, Corticotropin-releasing factor receptor 1 (Homo sapiens, UniProt P34998).
T2 sequence (P34998 whole entry): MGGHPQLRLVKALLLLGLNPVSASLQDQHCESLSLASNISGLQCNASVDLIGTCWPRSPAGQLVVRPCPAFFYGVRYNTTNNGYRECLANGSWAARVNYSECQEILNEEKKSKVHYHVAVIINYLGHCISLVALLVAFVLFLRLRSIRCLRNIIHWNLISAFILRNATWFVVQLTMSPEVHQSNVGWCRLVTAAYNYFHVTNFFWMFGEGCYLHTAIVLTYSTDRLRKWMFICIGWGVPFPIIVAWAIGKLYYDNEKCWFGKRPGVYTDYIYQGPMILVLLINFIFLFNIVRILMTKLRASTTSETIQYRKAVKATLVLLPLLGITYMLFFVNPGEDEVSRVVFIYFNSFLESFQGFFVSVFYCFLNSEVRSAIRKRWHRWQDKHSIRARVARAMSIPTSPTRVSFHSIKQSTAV
Kind of experiment: Effective dose against human Corticotropin releasing factor receptor 1 stimulated ACTH release from primary rat anterior pituitary cell cultures. In kind it is functional, cell-based, Pituitary gland cell.
The molecule `CCCN(c1nccc(-c2c(Cl)cc(OC)cc2OC)n1)C(C1CC1)C1CC1` gave an EC50 of 1100 nM. As to `CCCN(c1nccc(-c2c(OC)cc(OC)cc2OC)n1)C(C1CC1)C1CC1`, the EC50 stood at 970 nM.

The target in a further experiment is T2, Corticotropin-releasing factor receptor 1. The experiment is described as follows: Effective dose against CRF stimulated cAMP production in CHO cells expressing human Corticotropin releasing factor receptor 1. In kind it is functional, cell-based. (cAMP levels reflect the balance of adenylyl cyclase and phosphodiesterase activity.)
The molecule `CCCN(c1nccc(-c2c(Cl)cc(OC)cc2OC)n1)C(C1CC1)C1CC1` showed an EC50 of 1600 nM. On the same count and under the same terms, as for `CCCN(c1nccc(-c2c(OC)cc(OC)cc2OC)n1)C(C1CC1)C1CC1`, the figure is 990 nM.

For the next experiment the target is unchanged. The experiment is described as follows: Binding affinity towards human Corticotropin releasing factor receptor 1 by the displacement of [125I]CRF from CHO cells; IA means Inactive. In kind it is cell-based. In general terms: Displacement assays read how much labelled ligand stays bound in the presence of the test substance.
Consider `COc1cc(OC)c(-c2ccnc(N)n2)c(OC)c1`, for which the inhibition constant Ki result was “Not Active”.

Regarding `COc1cc(OC)c(-c2ccnc(NC(C3CC3)C3CC3)n2)c(OC)c1`, the Ki result is recorded as “Not Active”.

Consider `CCCN(c1ncc(C(=O)OC)c(-c2ccc(OC)cc2OC)n1)C(C1CC1)C1CC1`, for which the inhibitory constant (Ki) entry was “Not Active”. `CCCN(c1nc(C)c(C)c(-c2ccc(Br)cc2)n1)C(C1CC1)C1CC1`: the Ki entry was “Not Active”. Take `CCCN(c1nccc(-c2c(OC)cc(OC)cc2OC)n1)c1cccc2ccccc12`: the inhibitory constant (Ki) entry is recorded as “Not Active”.

For a further experiment the target is unchanged. Kind of experiment: biochemical. In kind it is cell-based, CHO.
For the molecule `CCCN(c1nccc(-c2c(OC)cc(OC)cc2OC)n1)[C@@H](c1ccccc1)C1CC1`, the Ki is 240 nM.

Take `C=CCN(c1nccc(-c2c(OC)cc(OC)cc2OC)n1)C(C1CC1)C1CC1`: the affinity, expressed as Ki, was 100 nM. On the same count and under the same terms, as for `CCCN(c1ncc(C)c(-c2ccc(OC)cc2OC)n1)C(C1CC1)C1CC1`, the figure is 19 nM.

`CCCN(c1nccc(-c2c(OC)cc(OC)cc2OC)n1)C1(c2cccs2)CC1`: affinity was put at a Ki of 250 nM. `CCCN(c1nccc(-c2ccc(OC)cc2OC)n1)C(C1CC1)C1CC1` came in with an inhibition constant Ki of 460 nM.

Molecule `CCCN(c1nccc(-c2c(OC)cc(OC)cc2OC)n1)C1(c2ccoc2)CC1` registered a Ki of 700 nM.

For the molecule `CCCN(c1ncc(C)c(-c2c(OC)cc(OC)cc2OC)n1)C(C1CC1)C1CC1`, the affinity corresponds to a Ki of 15 nM. As for `CCCN(c1ncc(C)c(-c2ccc(Br)cc2)n1)C(C1CC1)C1CC1`, affinity was put at a Ki of 49 nM. The same measure, in the same setting: in the case of `CCCN(c1nccc(-c2c(F)cc(OC)cc2OC)n1)C(C1CC1)C1CC1` it was 63 nM. On to `CCCN(c1ncc(CC)c(-c2ccc(OC)cc2OC)n1)C(C1CC1)C1CC1`, for which the Ki was 860 nM. The molecule `CCCN(c1nccc(-c2c(Cl)cc(OC)cc2OC)n1)C(C1CC1)C1CC1` registered a Ki of 11 nM. In the case of `CCCN(c1nccc(-c2c(OC)cc(OC)cc2OC)n1)C(C1CC1)C1CC1`, the inhibition constant Ki came out at 15 nM.

In the case of `CCCN(c1ncc(C)c(-c2ccc(Br)cc2C)n1)C(C1CC1)C1CC1`, the inhibition constant (Ki) was 63 nM.

The Ki is a measure of affinity in units of concentration, obtained from inhibition or displacement. High values mean weaker binding, low ones tighter binding. One may read the EC50 as the concentration at which the effect is half-maximal. Low values mean higher potency in that assay, high ones lower potency in that assay.

For the origin of these results see ChEMBL document CHEMBL1147540, “Design, synthesis, and SAR of 2-dialkylamino-4-arylpyrimidines as potent and selective corticotropin-releasing factor(1) (CRF(1)) receptor antagonists” (Bioorg Med Chem Lett, 2004).
